In patent publication US20090186024A1, “Gene Expression Signatures for Oncogenic Pathway Deregulation” (priority 2005, published 2009):

Tested on: breast cancer cell lines
Assay: Cell proliferation assays (growth inhibition, standard MTT/MTS colorimetric assay)
Format: cell-based
Settings: 96 hrs, versus DMSO controls, FIG. 4B
Experimental: FIGS. 4A-4B show pathway deregulation in breast cancer cell lines predicts drug sensitivity. A. Pathway predictions in breast cancer cell lines. The results plotted show images of the predicted probability of pathway activation (red indicates high probability, blue indicates low probability). B. Sensitivity to pathway-specific drugs. Left panel. Cells were treated with 3.75 μM of farnesyltransferase inhibitor (L-744,832) for 96 hrs. Proliferation was assayed using a standard MTS tetrazolium colorimetric method. The degree of proliferation inhibition was plotted as a function of probability of Ras pathway activation as determined in panel A. Middle panel. Same as in left panel but using farnesylthiosalicylic acid (200 μM). Right panel. Same as in left panel but using the Src pathway inhibitor SU6656 (1.5 μM), and with the degree of proliferation inhibition plotted as a function of Src pathway activation. […]
Cell and RNA preparation. […] Expression of oncogenes and their secondary targets was determined by a standard Western Blotting protocol using a TGH lysis buffer (1% Triton X-100, 10% glycerol, 50 mM NaCl, 50 mM Hepes, pH 7.3, 5 mM EDTA, 1 mM sodium orthovanadate, 1 mM PMSF, 10 μg/ml leupeptine, 10 μg/ml aprotinin). […] Protein quantitation of lysates was determined by BCA [Pierce] prior to electrophoresis with a 10-12% SDS-PAGE gel. Activation status of kinase pathways for the breast cancer cell lines was determined for growing cells (at 75% confluency) 48 hours after plating using the following methods. Ras activation is measured using a Ras Activation Assay Kit (Upstate Biotechnology) that consists of a GST fusion-protein corresponding to the human Ras Binding Domain (RBD, residues 1-149) of Raf-1. […] Western Blotting for immunoprecipitated H/K-Ras is detected using an H/K-Ras specific antibody (Santa Cruz Biotechnology, #sc-520 and sc-F234). c-Src activation was determined by Western Blotting using a phospho-Tyr416 Src antibody (Cell Signaling, #2101). […]

SMILES	relation between probability of Src pathway deregulation (gene expression prediction) and extent of cell proliferation inhibition by the drug	relation between probability of Ras pathway deregulation (gene expression prediction) and extent of cell proliferation inhibition by the drug
CN(C)S(=O)(=O)c1ccc2c(c1)/C(=C/c1cc3c([nH]1)CCCC3)C(=O)N2 [SU6656]	close concordance and correlation	–
CC(C)=CCCC(C)=CCCC(C)=CCSc1ccccc1C(=O)O [FTS, farnesylthiosalicylic acid]	–	close concordance and correlation
CC[C@H](C)[C@@H](CO[C@@H](Cc1ccccc1)C(=O)N[C@@H](CCS(C)(=O)=O)C(=O)OC(C)C)NC[C@@H](N)CS [L-744,832]	–	close concordance and correlation
